Experimental findings from article doi:10.1101/743898v3 (biorxiv, 2019) are described below.

Experiment [1] has as its target T1, ZmHK1 (tobacco membrane; fused to GFP) (Zea mays, UniProt Q9FRY7).
T1 sequence (Q9FRY7 1-974): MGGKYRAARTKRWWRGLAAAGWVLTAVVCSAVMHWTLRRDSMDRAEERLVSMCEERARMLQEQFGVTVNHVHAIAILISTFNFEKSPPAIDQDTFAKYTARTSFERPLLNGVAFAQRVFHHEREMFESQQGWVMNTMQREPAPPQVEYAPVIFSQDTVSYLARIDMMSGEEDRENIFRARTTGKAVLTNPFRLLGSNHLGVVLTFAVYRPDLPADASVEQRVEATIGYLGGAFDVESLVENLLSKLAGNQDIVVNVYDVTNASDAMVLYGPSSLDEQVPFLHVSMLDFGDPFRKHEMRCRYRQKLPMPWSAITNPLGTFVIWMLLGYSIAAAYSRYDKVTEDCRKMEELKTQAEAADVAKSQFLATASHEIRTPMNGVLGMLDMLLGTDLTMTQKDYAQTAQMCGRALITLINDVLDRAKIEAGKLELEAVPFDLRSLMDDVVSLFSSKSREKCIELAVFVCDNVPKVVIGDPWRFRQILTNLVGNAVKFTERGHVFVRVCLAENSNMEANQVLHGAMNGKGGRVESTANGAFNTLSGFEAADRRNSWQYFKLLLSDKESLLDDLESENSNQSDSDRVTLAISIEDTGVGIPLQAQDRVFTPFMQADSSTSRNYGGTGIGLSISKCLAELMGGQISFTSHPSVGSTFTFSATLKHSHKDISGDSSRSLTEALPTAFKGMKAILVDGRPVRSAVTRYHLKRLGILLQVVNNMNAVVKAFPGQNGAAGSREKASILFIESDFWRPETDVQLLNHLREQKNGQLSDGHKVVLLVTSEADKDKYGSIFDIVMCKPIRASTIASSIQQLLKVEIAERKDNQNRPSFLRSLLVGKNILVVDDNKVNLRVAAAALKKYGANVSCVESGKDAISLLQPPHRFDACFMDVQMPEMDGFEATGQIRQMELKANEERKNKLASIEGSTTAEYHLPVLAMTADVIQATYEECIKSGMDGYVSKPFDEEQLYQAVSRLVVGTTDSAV
The experiment can be described thus: cytokinin binding assay, tobacco microsomal membranes.

Experiment [2] has as its target T2, ZmHK1 (tobacco membrane; fused to GFP) (Zea mays, UniProt Q9FRY7, P190L).
T2 sequence (Q9FRY7 1-974 P190L): T1 sequence (Q9FRY7 1-974) with P190L
The description is as above.

SMILES strings stand for the structures. Substitutions are numbered along the chain they refer to. Bounds are passed on as bounds.

In experiment [1], `Nc1ncnc2nc[nH]c12` [Ade] had a Kd greater than 10000 nM.

As to `O=C(Nc1ccccc1)Nc1cnns1` [TD], the Kd in experiment [1] was determined as 49.2 nM.

`c1ccc(CNc2ncnc3nc[nH]c23)cc1` [BA] showed a Kd in experiment [1] of 1.42 nM.

Regarding `CC(C)=CCNc1ncnc2nc[nH]c12` [iP], in experiment [2], the dissociation constant (Kd) amounted to 0.23 nM.

`C[C@H](CO)CCNc1ncnc2nc[nH]c12` [DZ] registered an equilibrium dissociation constant (Kd) in experiment [1] of 114 nM.
